This note sets out measurements from US10941126B2, “Bridged bicycloalkyl-substituted aminothiazoles and their methods of use” (Temple University—Of The Commonwealth System of Higher …, priority 2017, dated 2021).

The structures appear in SMILES notation.

For one assay, the system named is panel of 250 kinases. Nature of the assay: 250 kinome screening at 1 μM. Type of assay: biochemical, human. The method, then: HDAC inhibitory activity assays were performed using FLUOR DE LYS® HDAC fluorometric activity assay kit from Enzo following the manufacturer's instructions. GloMax®-Multi Detection System (Promega) was used to read the fluorescence signals. Histone methyltransferase and demethylase enzymatic assays were performed by BPS Bioscience at 10 μM in duplicates. Kinase enzymatic assays were performed by Nanosyn using microfluidic technology. 250 kinome screening was done in duplicates using MC180295 at 1 μM. IC50 curves against 10 CDKs were created for MC180295. The human kinome tree was annotated using the online Kinome Render software (Chartier, M., Chénard, T., Barker, J., and Najmanovich, R. (2013). PeerJ 1, e126). Isotope kinase assay was performed using previously described methods (Garriga, J., Peng, J., Parreño, M., Price, D. H., Henderson, E. E., and Graña, X. (1998). Oncogene 17, 3093-3102) using recombinant active full-length CDK9/CyclinT1 (Millipore, 14-685) and SMARCA4 (Abcam, ab82237) in the presence or absence of CDK9 inhibitors.

For another assay, the system named is YB5. Nature of the assay: Cell cycle analysis and sub-G1 (propidium iodide). Type of assay: cell-based, human. The following applies: four-day drug treatment. As for the experimental part:
For drug screening and dose response validations, GFP positive cells were detected by Millipore Guava flow cytometer (EMD, Millipore). Cell cycle analysis was performed using BD FACSCalibur™ by propidium iodide staining four days after drug treatment. Sub-G1 population percentage was also included to measure apoptotic cell proportion. Data were analyzed using FlowJo software version 10.2. For the cell differentiation analysis, cells were washed and stained with propidium iodide (PI), CD11 b (BD Biosciences, #562793) and the isotype control IgG (BD Biosciences, #555748). Flow cytometry analysis was performed on a Millipore Guava flow cytometer (EMD, Millipore). For the ID8 in vivo experiments, ascites was drained from 5-10 mice per group and incubated in ACK buffer (Thermo Fisher) to lyse red blood cells for 10 minutes, then washed. Ascites from each mouse was individually lysed and prepared for flow cytometry. Mononuclear cells collected were cultured for 4 hours in RPMI with 5% Fetal Bovine Serum and in the presence of Cell Stimulation Cocktail (plus protein transport inhibitors; eBioscience). […] Flow cytometry acquisition was performed on an LSRII cytometer (BD Biosciences) and data were analyzed using FlowJo software version 10.2.

The test system of the next assay is SMARCA4. Nature of the assay: Phosphoproteomics (LC-MS/MS) in YB5 cells. Type of assay: cell-based, human. The following applies: 500 nM, 4 hr. The method, then: YB5 cells were treated with or without 500 nM MC180295 for 4 hours. Nuclear fraction was enriched using a hypotonic lysis buffer as previously described (Boden, G., Homko, C., Barrero, C. A., Stein, T. P., Chen, X., Cheung, P., Fecchio, C., Koller, S., and Merali, S. (2015), Sci Transl Med 7, 304-307). Proteins from the nuclear fraction were extracted with M-PER Mammalian Protein Extraction Reagent (Thermo Scientific, #78501) in the presence of protease and phosphatase inhibitors (Halt™ Protease Inhibitor Cocktail, #87785 and Halt™ Phosphatase Inhibitor Single-Use Cocktail, #78428). Phosphoproteins were enriched from 500 μg of nuclear extracted proteins, using a phosphoprotein purification kit (QIAGEN, #37101). Both samples were processed using in-StageTip method for digestion and peptide purification before performing LC-MS/MS proteomics analysis. The mass spectrometry proteomics data have been deposited to the ProteomeXchange Consortium via the PRIDE (Vizcaino, J. A., Csordas, A., del-Toro, N., Dianes, J. A., Griss, J., Lavidas, I., Mayer, G., Perez-Riverol, Y., Reisinger, F., Tement, T., et al. (2016). 2016 update of the PRIDE database and its related tools. Nucleic Acids Res 44, D447-456) partner repository with the dataset identifier PXD008040. […]

The next assay has as its system SW48 and HCT116 cells. Nature of the assay: qPCR for ERV expression. To be noted: Four-day treatment. It counts as cell-based, human. As for the experimental part: Total RNA was extracted using TRIzol reagent (Invitrogen) following the manufacturer's protocol and RNA concentrations were measured using Nanodrop. cDNAs were synthesized using High Capacity cDNA Reverse Transcription Kit (ThermoFisher) and qPCR was performed using either ready-made TaqMan® assays or SYBR-green using custom-designed primers. All the data were analyzed using Applied Biosystems software (StepOne™ Software V2.3). For all experiments, relative expression levels of the target genes were determined by calculating the 2^−ΔΔCt values. All experiments were performed at least in triplicates. Either GAPDH or 18S rRNA was used as an internal normalization control for protein coding genes. RPLPO was used as an internal normalization control for ERVs. All SYBR-green primers were described previously and are listed in Table 1 along with TaqMan® probes used.

For the compound `Nc1nc(N[C@H]2CC3CCC2C3)sc1C(=O)c1ccccc1[N+](=O)[O-]` (some centres unmarked) [MC180295], the “selectivity against a panel of 250 kinases” value in the assay on panel of 250 kinases is “highly selective against CDKs”. In addition, in the assay with YB5, the cell cycle arrest result is reported as “no cell cycle arrest” and the sub-G1 subpopulation entry is reported as “increase in the sub-G1 subpopulation”. Further, in the assay with SMARCA4, the “phosphorylation of SMARCA4 serine/threonine residues” value is “dephosphorylated”. Also, the ERV expression result in the assay with SW48 and HCT116 cells is “activated the expression of several ERVs”.
